Measurements: US9708314B2, “Heterocyclic amide compound” (NISSAN CHEMICAL INDUSTRIES, LTD., priority 2013, dated 2017)

Experiments:
Type in all cases: in vivo
Cyperus difformis = test: Test Example 3: herbicidal effect by application to foliage (Wagner pot, water depth 0.1-0.5 cm); conditions: Nineteenth Table; application to foliage; application herbicide amount 320 g/ha
Procedure, shortened: (§1)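 Seeds were sown in alluvial soil in Wagner pots, grown for 14 days at 25–30 °C, then sprayed uniformly on foliage with the emulsified compound diluted to a given rate per hectare. Injury was graded three weeks after treatment from 0 (≤5%) to 5 (≥90%).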

[1] = test system: Echinochloa crus-galli var. crus-galli; test: as above; conditions: Nineteenth Table; application to foliage; application herbicide amount 320 g/ha
Procedure, shortened: as §1

Leptochloa chinensis = test: as above; conditions: Nineteenth Table; application to foliage; application herbicide amount 320 g/ha
Procedure, shortened: as §1

[2] = test system: directly sowed Oryza sativa; test: Test Example 3: effect on crop by application to foliage (Wagner pot, water depth 0.1-0.5 cm); conditions: Nineteenth Table; application to foliage; application herbicide amount 320 g/ha
Procedure, shortened: as §1

Abutilon theophrasti = test: Test Example 4: herbicidal effect by application to foliage (diluvial soil, plastic box); conditions: foliage application, 320 g/ha
Procedure, shortened: (§2)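 Seeds sown in sterilized diluvial soil, covered ~1.5 cm, grown 14 days in greenhouse at 25° C. to 30° C. Emulsion formulation diluted in water to set rate (g/ha) and sprayed onto stems and leaves. Effect scored visually 3 weeks later on 0–5 scale (5 = ≥90% herbicidal ratio, 0 = ≤5%).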

Alopecurus myosuroides = test: as above; conditions: foliage application, 320 g/ha
Procedure, shortened: as §2

Amaranthus retroflexus = test: as above; conditions: foliage application, 320 g/ha
Procedure, shortened: as §2

Apera spica-venti. = test: as above; conditions: foliage application, 320 g/ha
Procedure, shortened: as §2

Avena fatua = test: as above; conditions: foliage application, 320 g/ha
Procedure, shortened: as §2

Chenopodium album = test: as above; conditions: foliage application, 320 g/ha
Procedure, shortened: as §2

Digitaria ciliaris = test: as above; conditions: foliage application, 320 g/ha
Procedure, shortened: as §2

[3] = test system: Echinochloa crus-galli var. crus-galli; test: as above; conditions: foliage application, 320 g/ha
Procedure, shortened: as §2

Galium spurium = test: as above; conditions: foliage application, 320 g/ha
Procedure, shortened: as §2

Lolium multiflorum Lam. = test: as above; conditions: foliage application, 320 g/ha
Procedure, shortened: as §2

Setaria viridis = test: as above; conditions: foliage application, 320 g/ha
Procedure, shortened: as §2

Stellaria media = test: as above; conditions: foliage application, 320 g/ha
Procedure, shortened: as §2

Veronica persica = test: as above; conditions: foliage application, 320 g/ha
Procedure, shortened: as §2

For `COC(=O)Cn1nnnc1NC(=O)c1ccc(C(F)(F)F)n2c(C(C)C)nnc12` [2-046], the “E (herbicidal effect grade)” value (Cyperus difformis) was 3 (Herbicidal ratio of 40% or more and less than 70%), the “H (herbicidal effect grade)” value [1] was 2 (Herbicidal ratio of 20% or more and less than 40%) and the “D (herbicidal effect grade)” value (Leptochloa chinensis) was 3 (Herbicidal ratio of 40% or more and less than 70%). The “b (effect on crop grade)” value [2] was 0 (Herbicidal ratio of 5% or less (almost no effect)), the “M (Abutilon theophrasti) herbicidal effect grade” value (Abutilon theophrasti) was 4 (Herbicidal ratio of 70% or more and less than 90%) and the “J (Alopecurus myosuroides) herbicidal effect grade” value (Alopecurus myosuroides) was 0 (Herbicidal ratio of 5% or less (almost no effect)). For the same molecule, the “N (Amaranthus retroflexus) herbicidal effect grade” value (Amaranthus retroflexus) was 4 (Herbicidal ratio of 70% or more and less than 90%), the “L (Apera spica-venti.) herbicidal effect grade” value (Apera spica-venti.) was 0 (Herbicidal ratio of 5% or less (almost no effect)) and the “I (Avena fatua) herbicidal effect grade” value (Avena fatua) was 0 (Herbicidal ratio of 5% or less (almost no effect)). For the same molecule, the “O (Chenopodium album) herbicidal effect grade” value (Chenopodium album) was 4 (Herbicidal ratio of 70% or more and less than 90%), the “F (Digitaria ciliaris) herbicidal effect grade” value (Digitaria ciliaris) was 0 (Herbicidal ratio of 5% or less (almost no effect)) and the “H (Echinochloa crus-galli var. crus-galli) herbicidal effect grade” value [3] was 3 (Herbicidal ratio of 40% or more and less than 70%). For the same molecule, the “Q (Galium spurium) herbicidal effect grade” value (Galium spurium) was 1 (Herbicidal ratio of 5% or more and less than 20%), the “K (Lolium multiflorum Lam.) herbicidal effect grade” value (Lolium multiflorum Lam.) was 0 (Herbicidal ratio of 5% or less (almost no effect)) and the “G (Setaria viridis) herbicidal effect grade” value (Setaria viridis) was 1 (Herbicidal ratio of 5% or more and less than 20%). For the same molecule, the “P (Stellaria media) herbicidal effect grade” value (Stellaria media) was 2 (Herbicidal ratio of 20% or more and less than 40%) and the “R (Veronica persica) herbicidal effect grade” value (Veronica persica) was 1 (Herbicidal ratio of 5% or more and less than 20%).

With `CC(C)c1nnc2c(C(=O)Nc3nnnn3C)ccc(C(F)F)n12` [2-047] the “E (herbicidal effect grade)” value (Cyperus difformis) was 5 (Herbicidal ratio of 90% or more (almost completely withered)), the “H (herbicidal effect grade)” value [1] was 4 (Herbicidal ratio of 70% or more and less than 90%) and the “D (herbicidal effect grade)” value (Leptochloa chinensis) was 5 (Herbicidal ratio of 90% or more (almost completely withered)). The “b (effect on crop grade)” value [2] was 3 (Herbicidal ratio of 40% or more and less than 70%), the “M (Abutilon theophrasti) herbicidal effect grade” value (Abutilon theophrasti) was 5 (Herbicidal ratio of 90% or more (almost completely withered)) and the “J (Alopecurus myosuroides) herbicidal effect grade” value (Alopecurus myosuroides) was 1 (Herbicidal ratio of 5% or more and less than 20%). The “N (Amaranthus retroflexus) herbicidal effect grade” value (Amaranthus retroflexus) was 5 (Herbicidal ratio of 90% or more (almost completely withered)), the “L (Apera spica-venti.) herbicidal effect grade” value (Apera spica-venti.) was 3 (Herbicidal ratio of 40% or more and less than 70%) and the “I (Avena fatua) herbicidal effect grade” value (Avena fatua) was 3 (Herbicidal ratio of 40% or more and less than 70%). The “O (Chenopodium album) herbicidal effect grade” value (Chenopodium album) was 5 (Herbicidal ratio of 90% or more (almost completely withered)), the “F (Digitaria ciliaris) herbicidal effect grade” value (Digitaria ciliaris) was 5 (Herbicidal ratio of 90% or more (almost completely withered)) and the “H (Echinochloa crus-galli var. crus-galli) herbicidal effect grade” value [3] was 5 (Herbicidal ratio of 90% or more (almost completely withered)). The “Q (Galium spurium) herbicidal effect grade” value (Galium spurium) was 3 (Herbicidal ratio of 40% or more and less than 70%), the “K (Lolium multiflorum Lam.) herbicidal effect grade” value (Lolium multiflorum Lam.) was 1 (Herbicidal ratio of 5% or more and less than 20%) and the “G (Setaria viridis) herbicidal effect grade” value (Setaria viridis) was 3 (Herbicidal ratio of 40% or more and less than 70%). For the same molecule, the “P (Stellaria media) herbicidal effect grade” value (Stellaria media) was 4 (Herbicidal ratio of 70% or more and less than 90%) and the “R (Veronica persica) herbicidal effect grade” value (Veronica persica) was 5 (Herbicidal ratio of 90% or more (almost completely withered)).

With `CN(C)c1nnc2c(C(=O)Nc3nnnn3C)ccc(C(F)(F)F)n12` [2-051] the “E (herbicidal effect grade)” value (Cyperus difformis) was 5 (Herbicidal ratio of 90% or more (almost completely withered)), the “H (herbicidal effect grade)” value [1] was 5 (Herbicidal ratio of 90% or more (almost completely withered)) and the “D (herbicidal effect grade)” value (Leptochloa chinensis) was 5 (Herbicidal ratio of 90% or more (almost completely withered)). For the same molecule, the “b (effect on crop grade)” value [2] was 4 (Herbicidal ratio of 70% or more and less than 90%), the “M (Abutilon theophrasti) herbicidal effect grade” value (Abutilon theophrasti) was 5 (Herbicidal ratio of 90% or more (almost completely withered)) and the “J (Alopecurus myosuroides) herbicidal effect grade” value (Alopecurus myosuroides) was 4 (Herbicidal ratio of 70% or more and less than 90%). For the same molecule, the “N (Amaranthus retroflexus) herbicidal effect grade” value (Amaranthus retroflexus) was 5 (Herbicidal ratio of 90% or more (almost completely withered)), the “L (Apera spica-venti.) herbicidal effect grade” value (Apera spica-venti.) was 5 (Herbicidal ratio of 90% or more (almost completely withered)) and the “I (Avena fatua) herbicidal effect grade” value (Avena fatua) was 5 (Herbicidal ratio of 90% or more (almost completely withered)). The “O (Chenopodium album) herbicidal effect grade” value (Chenopodium album) was 5 (Herbicidal ratio of 90% or more (almost completely withered)), the “F (Digitaria ciliaris) herbicidal effect grade” value (Digitaria ciliaris) was 5 (Herbicidal ratio of 90% or more (almost completely withered)) and the “H (Echinochloa crus-galli var. crus-galli) herbicidal effect grade” value [3] was 5 (Herbicidal ratio of 90% or more (almost completely withered)). For the same molecule, the “Q (Galium spurium) herbicidal effect grade” value (Galium spurium) was 5 (Herbicidal ratio of 90% or more (almost completely withered)), the “K (Lolium multiflorum Lam.) herbicidal effect grade” value (Lolium multiflorum Lam.) was 4 (Herbicidal ratio of 70% or more and less than 90%) and the “G (Setaria viridis) herbicidal effect grade” value (Setaria viridis) was 5 (Herbicidal ratio of 90% or more (almost completely withered)). The “P (Stellaria media) herbicidal effect grade” value (Stellaria media) was 5 (Herbicidal ratio of 90% or more (almost completely withered)) and the “R (Veronica persica) herbicidal effect grade” value (Veronica persica) was 5 (Herbicidal ratio of 90% or more (almost completely withered)).

With `CSCCc1nnc2c(C(=O)Nc3nnnn3C)ccc(C(F)(F)F)n12` [2-057] the “E (herbicidal effect grade)” value (Cyperus difformis) was 5 (Herbicidal ratio of 90% or more (almost completely withered)), the “H (herbicidal effect grade)” value [1] was 5 (Herbicidal ratio of 90% or more (almost completely withered)) and the “D (herbicidal effect grade)” value (Leptochloa chinensis) was 5 (Herbicidal ratio of 90% or more (almost completely withered)). The “b (effect on crop grade)” value [2] was 5 (Herbicidal ratio of 90% or more (almost completely withered)), the “M (Abutilon theophrasti) herbicidal effect grade” value (Abutilon theophrasti) was 5 (Herbicidal ratio of 90% or more (almost completely withered)) and the “J (Alopecurus myosuroides) herbicidal effect grade” value (Alopecurus myosuroides) was 4 (Herbicidal ratio of 70% or more and less than 90%). For the same molecule, the “N (Amaranthus retroflexus) herbicidal effect grade” value (Amaranthus retroflexus) was 5 (Herbicidal ratio of 90% or more (almost completely withered)), the “L (Apera spica-venti.) herbicidal effect grade” value (Apera spica-venti.) was 4 (Herbicidal ratio of 70% or more and less than 90%) and the “I (Avena fatua) herbicidal effect grade” value (Avena fatua) was 4 (Herbicidal ratio of 70% or more and less than 90%). The “O (Chenopodium album) herbicidal effect grade” value (Chenopodium album) was 5 (Herbicidal ratio of 90% or more (almost completely withered)), the “F (Digitaria ciliaris) herbicidal effect grade” value (Digitaria ciliaris) was 5 (Herbicidal ratio of 90% or more (almost completely withered)) and the “H (Echinochloa crus-galli var. crus-galli) herbicidal effect grade” value [3] was 5 (Herbicidal ratio of 90% or more (almost completely withered)). The “Q (Galium spurium) herbicidal effect grade” value (Galium spurium) was 4 (Herbicidal ratio of 70% or more and less than 90%), the “K (Lolium multiflorum Lam.) herbicidal effect grade” value (Lolium multiflorum Lam.) was 4 (Herbicidal ratio of 70% or more and less than 90%) and the “G (Setaria viridis) herbicidal effect grade” value (Setaria viridis) was 5 (Herbicidal ratio of 90% or more (almost completely withered)). The “P (Stellaria media) herbicidal effect grade” value (Stellaria media) was 5 (Herbicidal ratio of 90% or more (almost completely withered)) and the “R (Veronica persica) herbicidal effect grade” value (Veronica persica) was 5 (Herbicidal ratio of 90% or more (almost completely withered)).

With `Cn1nnnc1NC(=O)c1ccc(C(F)(F)F)n2c(CC[S+](C)[O-])nnc12` (stereo not shown) [2-058] the “E (herbicidal effect grade)” value (Cyperus difformis) was 5 (Herbicidal ratio of 90% or more (almost completely withered)), the “H (herbicidal effect grade)” value [1] was 5 (Herbicidal ratio of 90% or more (almost completely withered)) and the “D (herbicidal effect grade)” value (Leptochloa chinensis) was 5 (Herbicidal ratio of 90% or more (almost completely withered)). For the same molecule, the “b (effect on crop grade)” value [2] was 5 (Herbicidal ratio of 90% or more (almost completely withered)), the “M (Abutilon theophrasti) herbicidal effect grade” value (Abutilon theophrasti) was 5 (Herbicidal ratio of 90% or more (almost completely withered)) and the “J (Alopecurus myosuroides) herbicidal effect grade” value (Alopecurus myosuroides) was 4 (Herbicidal ratio of 70% or more and less than 90%). The “N (Amaranthus retroflexus) herbicidal effect grade” value (Amaranthus retroflexus) was 5 (Herbicidal ratio of 90% or more (almost completely withered)), the “L (Apera spica-venti.) herbicidal effect grade” value (Apera spica-venti.) was 4 (Herbicidal ratio of 70% or more and less than 90%) and the “I (Avena fatua) herbicidal effect grade” value (Avena fatua) was 5 (Herbicidal ratio of 90% or more (almost completely withered)). The “O (Chenopodium album) herbicidal effect grade” value (Chenopodium album) was 5 (Herbicidal ratio of 90% or more (almost completely withered)), the “F (Digitaria ciliaris) herbicidal effect grade” value (Digitaria ciliaris) was 5 (Herbicidal ratio of 90% or more (almost completely withered)) and the “H (Echinochloa crus-galli var. crus-galli) herbicidal effect grade” value [3] was 5 (Herbicidal ratio of 90% or more (almost completely withered)). For the same molecule, the “Q (Galium spurium) herbicidal effect grade” value (Galium spurium) was 5 (Herbicidal ratio of 90% or more (almost completely withered)), the “K (Lolium multiflorum Lam.) herbicidal effect grade” value (Lolium multiflorum Lam.) was 4 (Herbicidal ratio of 70% or more and less than 90%) and the “G (Setaria viridis) herbicidal effect grade” value (Setaria viridis) was 5 (Herbicidal ratio of 90% or more (almost completely withered)). For the same molecule, the “P (Stellaria media) herbicidal effect grade” value (Stellaria media) was 5 (Herbicidal ratio of 90% or more (almost completely withered)) and the “R (Veronica persica) herbicidal effect grade” value (Veronica persica) was 5 (Herbicidal ratio of 90% or more (almost completely withered)).
